Measurements published in PubChem BioAssay AID248 (DTP/NCI, 2004).
Inconclusive results and toxic doses are left out. No stated cut-off is given here; in the data, active means T/C of 150% or more; inactive means T/C below 125%.

Tested on: L1210 leukemia ip in BDF1 mice, survival T/C
Assay: NCI In Vivo Anticancer Drug Screen. Data for tumor model L1210 Leukemia (intraperitoneal) in B6D2F1 (BDF1) mice
Conditions: endpoint: mean survival time, higher = longer survival
Procedure, shortened: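 Read-out is survival time, reported as the treated-group measurement over the vehicle-control measurement.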

[1] = dose: 100.0 mg/kg/injection, schedule: Q01DX001 (ip), vehicle: saline
[2] = dose: 200.0 mg/kg/injection, schedule: Q01DX001 (ip), vehicle: saline
[3] = dose: 400.0 mg/kg/injection, schedule: Q01DX001 (ip), vehicle: saline
[4] = dose: 100.0 mg/kg/injection, schedule: Q01DX009 (ip), vehicle: Klucel (hydroxypropylcellulose) (HPC)
[5] = dose: 200.0 mg/kg/injection, schedule: Q01DX009 (ip), vehicle: Klucel (hydroxypropylcellulose) (HPC)
[6] = dose: 100.0 mg/kg/injection, schedule: Q01DX009 (ip), vehicle: saline
[7] = dose: 100.0 mg/kg/injection, schedule: Q04DX002 (ip), vehicle: Klucel (hydroxypropylcellulose) (HPC)
[8] = dose: 100.0 mg/kg/injection, schedule: Q04DX003 (ip), vehicle: Klucel (hydroxypropylcellulose) (HPC)
[9] = dose: 200.0 mg/kg/injection, schedule: Q04DX003 (ip), vehicle: Klucel (hydroxypropylcellulose) (HPC)
[10] = dose: 400.0 mg/kg/injection, schedule: Q01DX009 (ip), vehicle: Klucel (hydroxypropylcellulose) (HPC)
[11] = dose: 400.0 mg/kg/injection, schedule: Q04DX003 (ip), vehicle: Klucel (hydroxypropylcellulose) (HPC)
[12] = dose: 200.0 mg/kg/injection, schedule: Q04DX002 (ip), vehicle: Klucel (hydroxypropylcellulose) (HPC)
[13] = dose: 400.0 mg/kg/injection, schedule: Q04DX002 (ip), vehicle: Klucel (hydroxypropylcellulose) (HPC)

Measured: T/C

CCOC(Nc1ccc(Cl)c(Cl)c1)C(=O)c1ccccc1 (stereo unspecified)
inactive: [1] 105 % of control | [2] 105 % of control | [3] 96 % of control

C=C1C(=O)OC2C1C(OC(=O)/C(=C/C)COC(C)=O)CC1(CO1)C1C(OC(=O)/C(=C/C)CO)C=C(C)C21 (stereo unspecified)
inactive: dose: 50.0 mg/kg/injection, schedule: Q01DX009 (ip), vehicle: Klucel (hydroxypropylcellulose) (HPC) 93 % of control | [4] 93 % of control | [5] 86 % of control

CCOC(=O)CCN(CC)C(C)=O
inactive: [6] 93 % of control | dose: 100.0 mg/kg/injection, schedule: Q04DX003 (ip), vehicle: saline sonified 101 % of control | dose: 200.0 mg/kg/injection, schedule: Q01DX009 (ip), vehicle: saline 93 % of control | dose: 200.0 mg/kg/injection, schedule: Q04DX003 (ip), vehicle: saline sonified 95 % of control | dose: 400.0 mg/kg/injection, schedule: Q01DX009 (ip), vehicle: saline 93 % of control | dose: 400.0 mg/kg/injection, schedule: Q04DX003 (ip), vehicle: saline sonified 95 % of control

CCCCCOC(=O)CCCc1ccc(N(CCCl)CCCl)cc1
inactive: dose: 50.0 mg/kg/injection, schedule: Q01DX009 (ip), vehicle: saline 123 % of control | [6] 86 % of control

CCOC(=O)/C=C(/Nc1ccc(OC)cc1[N+](=O)[O-])C(=O)OCC
inactive: [1] 95 % of control | [2] 95 % of control | [3] 104 % of control

O=P(N=P(c1ccccc1)(c1ccccc1)c1ccccc1)(c1ccccc1)c1ccccc1
inactive: [1] 97 % of control | [2] 97 % of control | [3] 97 % of control

CCCCCCCCCCCCOC(N)=O
inactive: dose: 50.0 mg/kg/injection, schedule: Q01DX009 (ip), vehicle: saline with Tween-80 103 % of control | dose: 100.0 mg/kg/injection, schedule: Q01DX009 (ip), vehicle: saline with Tween-80 101 % of control | dose: 100.0 mg/kg/injection, schedule: Q04DX003 (ip), vehicle: saline with Tween-80 103 % of control | dose: 200.0 mg/kg/injection, schedule: Q01DX009 (ip), vehicle: saline with Tween-80 101 % of control | dose: 200.0 mg/kg/injection, schedule: Q04DX003 (ip), vehicle: saline with Tween-80 108 % of control | dose: 400.0 mg/kg/injection, schedule: Q04DX003 (ip), vehicle: saline with Tween-80 88 % of control

CCN(CC)Cc1ccccc1COC(=O)c1ccc(C)cc1
inactive: dose: 25.0 mg/kg/injection, schedule: Q04DX002 (ip), vehicle: Klucel (hydroxypropylcellulose) (HPC) 97 % of control | dose: 50.0 mg/kg/injection, schedule: Q04DX002 (ip), vehicle: Klucel (hydroxypropylcellulose) (HPC) 97 % of control | [7] 94 % of control

COc1ccc(OC)c(NC(=O)Nc2cccc(F)c2)c1
inactive: dose: 100.0 mg/kg/injection, schedule: Q01DX009 (ip), vehicle: gum acacia 90 % of control | dose: 200.0 mg/kg/injection, schedule: Q01DX009 (ip), vehicle: gum acacia 92 % of control

CN(C)CCC(CNC1=NCCN1)c1cccc2ccccc12 (stereo unspecified)
inactive: dose: 25.0 mg/kg/injection, schedule: Q04DX002 (ip), vehicle: saline with Tween-80 108 % of control | dose: 50.0 mg/kg/injection, schedule: Q04DX002 (ip), vehicle: saline with Tween-80 101 % of control | dose: 100.0 mg/kg/injection, schedule: Q04DX002 (ip), vehicle: saline with Tween-80 101 % of control

CCCCCCCCCCC(=O)OCC#CC#CCOC(=O)CCCCCCCCCC
inactive: [4] 97 % of control | [8] 103 % of control | [5] 98 % of control | [9] 92 % of control | [10] 101 % of control | [11] 91 % of control

Cc1ccc(NC(=S)NC(=O)c2ccco2)cc1Cl
inactive: [4] 101 % of control | [8] 102 % of control | [5] 106 % of control | [9] 98 % of control | [10] 102 % of control | [11] 98 % of control

CC(C)(C)c1ccc(Oc2ccc([N+](=O)[O-])cc2[N+](=O)[O-])c(Br)c1
inactive: [4] 96 % of control | [7] 104 % of control | [5] 96 % of control | [12] 108 % of control | [10] 96 % of control | [13] 111 % of control

SC1c2ccccc2-c2ccc(Br)cc21 (stereo unspecified)
inactive: [1] 101 % of control | [2] 99 % of control | [3] 97 % of control

O=C(COc1cc(Cl)c(Cl)cc1Cl)Oc1ccc(Cl)cc1Cl
inactive: [7] 94 % of control | [12] 91 % of control | [13] 98 % of control

O=C(Nc1ccc2ccccc2c1)Nc1ccccc1F
inactive: [4] 93 % of control | [5] 104 % of control | [10] 93 % of control
